ChEMBL document CHEMBL4311935, “Synthesis and antitumor activity of fluorouracil - oleanolic acid/ursolic acid/glycyrrhetinic acid conjugates” (Medchemcomm, 2019)

What was measured:
MCF7 = experiment: Cytotoxicity against human MCF7 cells assessed as cell growth inhibition after 48 hrs by MTT assay; assay type: functional, cell-based; conditions: MCF7, 48 h
A549 = experiment: Cytotoxicity against human A549 cells assessed as cell growth inhibition after 48 hrs by MTT assay; assay type: functional, cell-based; conditions: A549, 48 h
L02 = experiment: Cytotoxicity against human LO2 cells assessed as cell growth inhibition after 48 hrs by MTT assay; assay type: cell-based; conditions: L02, 48 h
Bel-7402 = experiment: Cytotoxicity against human Bel7402 cells assessed as cell growth inhibition after 48 hrs by MTT assay; assay type: functional, cell-based; conditions: Bel-7402, 48 h
K562 = experiment: Cytotoxicity against human K562 cells assessed as cell growth inhibition after 48 hrs by MTT assay; assay type: functional, cell-based; conditions: K562, 48 h
Bel7402/5-FU = experiment: Cytotoxicity against human Bel7402/5-FU cells assessed as cell growth inhibition after 48 hrs by MTT assay; assay type: functional, cell-based
NCI/ADR-RES = experiment: Cytotoxicity against human MCF7/ADR cells assessed as cell growth inhibition after 48 hrs by MTT assay; assay type: functional, cell-based
K562/Adr = experiment: Cytotoxicity against human K562/ADR cells assessed as cell growth inhibition after 48 hrs by MTT assay; assay type: functional, cell-based
A549/TR = experiment: Cytotoxicity against human A549/T cells assessed as cell growth inhibition after 48 hrs by MTT assay; assay type: functional, cell-based

Structure (SMILES)	IC50 (MCF7) [µM]	IC50 (A549) [µM]	IC50 (L02) [µM]	IC50 (Bel-7402) [µM]	IC50 (K562) [µM]	IC50 (Bel7402/5-FU) [µM]	IC50 (NCI/ADR-RES) [µM]	IC50 (K562/Adr) [µM]	IC50 (A549/TR) [µM]
CC1(C)[C@@H](O)CC[C@]2(C)[C@H]3C(=O)C=C4[C@@H]5C[C@@](C)(C(=O)OCCCCCCn6cc(F)c(=O)[nH]c6=O)CC[C@]5(C)CC[C@@]4(C)[C@]3(C)CC[C@@H]12	50.3	49.4	73.2	40.9	35.1	–	–	–	–
C[C@H]1[C@H](C)CC[C@]2(C(=O)OCCCCCCCCn3cc(F)c(=O)[nH]c3=O)CC[C@]3(C)C(=CC[C@@H]4[C@@]5(C)CC[C@H](O)C(C)(C)[C@@H]5CC[C@]43C)[C@H]12	> 200	> 200	> 200	> 200	> 200	–	–	–	–
C[C@H]1[C@H](C)CC[C@]2(C(=O)OCCCCCCCCn3cc(F)c(=O)n(CCCCCCCCOC(=O)[C@@]45CC[C@]6(C)C(=CC[C@@H]7[C@@]8(C)CC[C@H](O)C(C)(C)[C@@H]8CC[C@]76C)[C@@H]4C[C@@H](C)[C@H](C)C5)c3=O)CC[C@]3(C)C(=CC[C@@H]4[C@@]5(C)CC[C@H](O)C(C)(C)[C@@H]5CC[C@]43C)[C@H]12	> 200	> 200	> 200	> 200	> 200	–	–	–	–
CC1(C)CC[C@]2(C(=O)OCCCCCCn3cc(F)c(=O)[nH]c3=O)CC[C@]3(C)C(=CC[C@@H]4[C@@]5(C)CC[C@H](O)C(C)(C)[C@@H]5CC[C@]43C)[C@@H]2C1	24.3	23.4	46.6	25.2	14.9	–	–	–	–
CC1(C)CC[C@]2(C(=O)OCCCCCCCCn3cc(F)c(=O)n(CCCCCCCCOC(=O)[C@]45CCC(C)(C)C[C@H]4C4=CC[C@@H]6[C@@]7(C)CC[C@H](O)C(C)(C)[C@@H]7CC[C@@]6(C)[C@]4(C)CC5)c3=O)CC[C@]3(C)C(=CC[C@@H]4[C@@]5(C)CC[C@H](O)C(C)(C)[C@@H]5CC[C@]43C)[C@@H]2C1	> 200	> 200	> 200	> 200	> 200	–	–	–	–
O=c1[nH]cc(F)c(=O)[nH]1 [FLUOROURACIL]	52.1	50.4	> 200	53.3	41.7	38.2	54.7	31.9	84.3
C[C@H]1[C@H](C)CC[C@]2(C(=O)OCCCCCCn3cc(F)c(=O)n(CCCCCCOC(=O)[C@@]45CC[C@]6(C)C(=CC[C@@H]7[C@@]8(C)CC[C@H](O)C(C)(C)[C@@H]8CC[C@]76C)[C@@H]4C[C@@H](C)[C@H](C)C5)c3=O)CC[C@]3(C)C(=CC[C@@H]4[C@@]5(C)CC[C@H](O)C(C)(C)[C@@H]5CC[C@]43C)[C@H]12	> 200	> 200	> 200	> 200	> 200	–	–	–	–
C[C@H]1[C@H](C)CC[C@]2(C(=O)O)CC[C@]3(C)C(=CC[C@@H]4[C@@]5(C)CC[C@H](O)C(C)(C)[C@@H]5CC[C@]43C)[C@H]12 [URSOLIC ACID]	70.1	77.7	58.4	64.6	41	–	–	38.1	–
C[C@H]1[C@H](C)CC[C@]2(C(=O)OCCCCCCn3cc(F)c(=O)[nH]c3=O)CC[C@]3(C)C(=CC[C@@H]4[C@@]5(C)CC[C@H](O)C(C)(C)[C@@H]5CC[C@]43C)[C@H]12	18.9	17.4	22.2	32.5	14.9	–	–	–	–
CC1(C)CC[C@]2(C(=O)OCCCCCCCCn3cc(F)c(=O)[nH]c3=O)CC[C@]3(C)C(=CC[C@@H]4[C@@]5(C)CC[C@H](O)C(C)(C)[C@@H]5CC[C@]43C)[C@@H]2C1	53.6	50.5	> 200	43.8	23	31.4	166	> 200	43.1
CC1(C)CC[C@]2(C(=O)OCCCCCCn3cc(F)c(=O)n(CCCCCCOC(=O)[C@]45CCC(C)(C)C[C@H]4C4=CC[C@@H]6[C@@]7(C)CC[C@H](O)C(C)(C)[C@@H]7CC[C@@]6(C)[C@]4(C)CC5)c3=O)CC[C@]3(C)C(=CC[C@@H]4[C@@]5(C)CC[C@H](O)C(C)(C)[C@@H]5CC[C@]43C)[C@@H]2C1	> 200	> 200	> 200	> 200	> 200	–	–	–	–
CC1(C)[C@@H](O)CC[C@]2(C)[C@H]3C(=O)C=C4[C@@H]5C[C@@](C)(C(=O)OCCCCCCCCn6cc(F)c(=O)n(CCCCCCCCOC(=O)[C@@]7(C)CC[C@]8(C)CC[C@]9(C)C(=CC(=O)[C@@H]%10[C@@]%11(C)CC[C@H](O)C(C)(C)[C@@H]%11CC[C@]%109C)[C@@H]8C7)c6=O)CC[C@]5(C)CC[C@@]4(C)[C@]3(C)CC[C@@H]12	> 200	> 200	> 200	> 200	> 200	–	–	–	–
CC1(C)CC[C@]2(C(=O)O)CC[C@]3(C)C(=CC[C@@H]4[C@@]5(C)CC[C@H](O)C(C)(C)[C@@H]5CC[C@]43C)[C@@H]2C1 [OLEANOLIC_ACID]	> 200	41.6	> 200	59.9	> 200	> 200	> 200	> 200	> 200
CC1(C)[C@@H](O)CC[C@]2(C)[C@H]3C(=O)C=C4[C@@H]5C[C@@](C)(C(=O)O)CC[C@]5(C)CC[C@@]4(C)[C@]3(C)CC[C@@H]12 [ENOXOLONE]	> 200	> 200	> 200	> 200	> 200	69.8	74.5	86.5	99.9
CC1(C)[C@@H](O)CC[C@]2(C)[C@H]3C(=O)C=C4[C@@H]5C[C@@](C)(C(=O)OCCCCCCn6cc(F)c(=O)n(CCCCCCOC(=O)[C@@]7(C)CC[C@]8(C)CC[C@]9(C)C(=CC(=O)[C@@H]%10[C@@]%11(C)CC[C@H](O)C(C)(C)[C@@H]%11CC[C@]%109C)[C@@H]8C7)c6=O)CC[C@]5(C)CC[C@@]4(C)[C@]3(C)CC[C@@H]12	> 200	> 200	> 200	> 200	> 200	–	–	–	–
